Laboratory results as given in patent publication US5684032A, “Compounds” (SmithKline Beecham Corporation, priority 1995, dated 1997).

Assays:
[1] = tested on: recombinant human IL-8 type α receptor (IL-8Rα, Type I, non-permissive receptor); assay: [125I] IL-8 receptor binding assay, IL-8Rα (Type I, non-permissive) CHO membranes; conditions: IL-8Rα (type I) receptor binding assay
From the text: (§1) [^125 I] IL-8 (human recombinant) was obtained from Amersham Corp., Arlington Heights, Ill., with specific activity 2000 Ci/mmol. All other chemicals were of analytical grade. High levels of recombinant human IL-8 type α and β receptors were individually expressed in Chinese hamster ovary cells as described previously (Holmes, et al., Science, 1991, 253, 1278). The Chinese hamster ovary membranes were homogenized according to a previously described protocol (Kraft, et al., Nature, 1983, 301, 621). Membrane protein concentration was determined using Pierce Co. micro-assay kit using bovine serum albumin as a standard. All assays were performed in a 96-well micro plate format. Each reaction mixture contained ^125 I IL-8 (0.25 nM), 0.5 μg/mL of IL-8Rα or 1.0 μg/mL of IL-8Rβ membranes in 20 mM Bis-Trispropane and 0.4 mM Tris HCl buffers, pH 8.0, containing 1.2 mM MgSO4, 0.1 mM EDTA, 25 mM NaCl and 0.03% CHAPS plus peptide at relevant concentrations. The assay was initiated by addition of ^125 I-IL-8. After 1 hour at room temperature the plate was harvested using a Tomtec 96-well harvester onto a glass fiber filtermat blocked with 1% polyethyleneimine/0.5% BSA and washed 3 times with 25 mM NaCl, 10 mM TrisHCl, 1 mM MgSO4, 0.5 mM EDTA, 0.03% CHAPS, pH 7.4. The filter was then dried and counted on the Betaplate liquid scintillation counter. […]

[2] = tested on: recombinant human IL-8 type β receptor (IL-8Rβ, Type II, permissive receptor); assay: [125I] IL-8 receptor binding assay, IL-8Rβ (Type II, permissive) CHO membranes; conditions: IL-8Rβ (type II) receptor binding assay
From the text: as §1

inhibition of IL-8 binding, result in words [1]: not active
inhibition of IL-8 binding, result in words [2]: not active
Compound: O=C(O)c1c(-c2ccccc2)c2ccccc2n1Cc1ccc(OC(F)(F)F)cc1
